{
  "source": "patent US20100331269A1",
  "about": "“TRITERPENES DERIVATIVES AND USES THEREOF AS ANTITUMOR AGENTS OR ANTI-INFLAMMATORY AGENTS” (priority 2006, published 2010)",
  "key": {"[1]": {"tested_on": "PC-3 human prostate adenocarcinoma cells", "assay": "Cytotoxicity, resazurin metabolism assay, PC-3", "type": "cell-based", "conditions": "mean ± SD", "from_the_text": "(§1) Human lung carcinoma (A-549), human colon adenocarcinoma (DLD-1), human normal fibroblasts (WS1), mice melanoma (B16-F1), Human glioma (U-251), Human hepatocellular carcinoma (HEP G2), Human prostate adenocarcinoma (PC-3), Human ovary teratocarcinoma metastatic (PA-1), Human breast adenocarcinona metastatic (MDA-MB-231), Human breast adenocarcinoma (MCF-7) and Human malignant melanoma (SK-MEL-2) cell lines were obtained from the American Type Culture Collection (ATCC). All cell lines were cultured in minimum essential medium containing Earle's salts and L-glutamine (Mediatech Cellgro, Va.), to which was added 10% fetal bovine serum (Hyclone), vitamins (1×), penicillin (100 I.U./mL) and streptomycin (100 μg/mL), essential amino acids (1×) and sodium pyruvate (1×) (Mediatech Cellgro, Va.). Cells were kept at 37° C. in a humidified environment containing 5% CO2.\n(§2) Exponentially growing cells were plated in 96-well microplates (Costar, Corning Inc.) at a density of 5×10^3 cells per well in 100 μL of culture medium and were allowed to adhere for 16 hours before treatment. Increasing concentrations of each compound in DMSO (Sigma-Aldrich) were then added (100 μL per well) and the cells were incubated for 48 h. […] Cytotoxicity was assessed using resazurin (O'Brien, J. et al., Eur. J. Biochem. 2000, 267, 5421-5426) on an automated 96-well Fluoroskan Ascent F1™ plate reader (Labsystems) using excitation and emission wavelengths of 530 nm and 590 nm, respectively. Fluorescence was proportional to the cellular metabolic activity in each well. Survival percentage was defined as the fluorescence in experimental wells compared to that in control wells after subtraction of blank values. Each experiment was carried out three times in triplicata. IC50 results were expressed as mean±standard deviation.\n(§3) Compounds presented in Table 5 below were also tested in the following tumour cell lines: U-251 (Human glioma), HEP G2 (Human hepatocellular carcinoma), PC-3 (Human prostate adenocarcinoma), PA-1 (Human ovary teratocarcinoma metastatic), MDA-MB-231 (Human breast adenocarcinona metastatic), MCF-7 (Human breast adenocarcinoma) and SK-MEL-2 (Human malignant melanoma)."}, "[2]": {"tested_on": "MCF-7 human breast adenocarcinoma cells", "assay": "Cytotoxicity, resazurin metabolism assay, MCF-7", "type": "cell-based", "conditions": "mean ± SD", "from_the_text": "as §1, §2, §3"}, "Lewis lung carcinoma": {"tested_on": "Lewis lung carcinoma", "assay": "In vivo antitumoral activity against Lewis lung cancer-bearing mice", "set-up": "species or system C57BL/6 mouse", "conditions": "day 13", "procedure": "Cell lines and mice preparation: The Lewis lung carcinoma cell lines (#CRL-1642, lot # 4372266, ATCC) and the C57BL/6 mouse strain (Charles River Inc., St-Constant, Qc) were used. Cells were grown to 90% confluence in complete DMEM medium containing Earle's salts and L-glutamine (Mediatech Cellgro, Va.), 10% foetal bovine serum (Hyclone), vitamins (1×), penicillin (100 I.U./mL) and streptomycin (100 μg/mL), essential amino acids (1×) and sodium pyruvate (1×) (Mediatech Cellgro, Va.). Cells were then harvested with up and down only. Cells were counted using a hemacytometer and resuspended in DMEM medium without SVF. 100 μL of a solution containing 1×10^7 cells/mL was inoculated subcutaneously in the right flank of each 6 weeks old mouse on day zero.\nThe experimental mice were weighed daily.\nData analysis: In vivo antitumor activity was evaluated according to the parameters as follows (Miot-Noirault, E. et al. Invest. New Drugs 2004, 22, 369-378):\n(a) Calculated tumour weight (CTW): The CTW of each tumour was estimated from two-dimensional measurements performed once a day with a slide calliper, according to the formula: CTW (mg)=(L×W^2)/2 with L=length in mm and W=width in mm. Differences in CTW between treated and control groups (DMSO) were analyzed for significance using the U Wilcoxon-Mann-Whitney test and Student t-test. Values of p<0.05 were considered statistically significant.\n(b) Treated/Control value (T/C) and Tumour Growth Inhibition (TGI):The T/C was calculated as the ratio of the mean CTW of TW of drug-treated mice versus controls: T/C=(CTW of the drug-treated group on Day X/CTW of the control group on Day X)×100. TGI is 100−(T/C) value."}, "[3]": {"tested_on": "B16-F1 mouse melanoma cells", "assay": "Cytotoxicity, resazurin metabolism assay, B16-F1", "type": "cell-based", "conditions": "48 h, mean ± SD", "outline": "(§4)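 Cells plated at 5×10^3/well, adhered 16 h, then exposed to increasing compound concentrations (DMSO) for 48 h. Viability by resazurin reduction, fluorescence ex 530/em 590 nm, blank-subtracted versus control wells; IC50 as mean±SD from three experiments in triplicate.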"}, "[4]": {"tested_on": "WS-1 human normal skin fibroblasts", "assay": "Cytotoxicity, resazurin metabolism assay, WS-1", "type": "cell-based", "conditions": "48 h, mean ± SD", "outline": "as §4"}, "[5]": {"tested_on": "Hep G2 human hepatocellular carcinoma cells", "assay": "Cytotoxicity, resazurin metabolism assay, Hep G2", "type": "cell-based", "conditions": "mean ± SD", "from_the_text": "as §1, §2, §3"}, "B16-F1 cells": {"tested_on": "B16-F1 cells", "assay": "Cytotoxicity, Hoechst DNA assay, B16-F1", "type": "cell-based, mouse", "conditions": "± SD", "outline": "(§5)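 Cells grown at 37 °C, 5% CO2, in MEM with 10% FBS. Compound cytotoxicity was measured by Hoechst DNA staining. Activity is expressed as IC50, the concentration inhibiting 50% of cell growth.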"}, "WS-1 cells": {"tested_on": "WS-1 cells", "assay": "Cytotoxicity, Hoechst DNA assay, WS-1", "type": "cell-based, human", "conditions": "± SD", "outline": "as §5"}, "[6]": {"tested_on": "DLD-1 human colorectal adenocarcinoma cells", "assay": "Cytotoxicity, resazurin metabolism assay, DLD-1", "type": "cell-based", "conditions": "48 h, mean ± SD", "outline": "as §4"}, "[7]": {"tested_on": "PA-1 human ovary teratocarcinoma cells", "assay": "Cytotoxicity, resazurin metabolism assay, PA-1", "type": "cell-based", "conditions": "mean ± SD", "from_the_text": "as §1, §2, §3"}, "DLD-1 cells": {"tested_on": "DLD-1 cells", "assay": "Cytotoxicity, Hoechst DNA assay, DLD-1", "type": "cell-based, human", "conditions": "± SD", "outline": "as §5"}},
  "note": "Marks after values point to notes of the source that are not given here.",
  "data": [
    {"smiles": "C=C(C)[C@@H]1CC[C@]2(C(=O)O)CC[C@]3(C)[C@H](CC[C@@H]4[C@@]5(C)CC[C@H](O[C@@H]6O[C@@H](C)[C@H](O)[C@@H](O)[C@H]6O)C(C)(C)[C@@H]5CC[C@]43C)[C@@H]12", "note": "[Compound 22, 3-O-α-L-Rhamnopyranoside of betulinic acid]", "values": [
      {"measurement": "IC50", "setting": "[1]", "value": "20 ± 6", "unit": "µM"},
      {"measurement": "IC50", "setting": "[2]", "value": "16 ± 2", "unit": "µM"},
      {"measurement": "CTW (calculated tumour weight)", "setting": "Lewis lung carcinoma; 50 mg/kg IP every 3-4 days", "value": "297 ± 98", "unit": "mg"},
      {"measurement": "T/C (Treated/Control)", "setting": "Lewis lung carcinoma; 50 mg/kg IP", "value": 91, "unit": "%"},
      {"measurement": "TGI (Tumour Growth Inhibition)", "setting": "Lewis lung carcinoma; 50 mg/kg IP", "value": 9, "unit": "%"},
      {"measurement": "CTW (calculated tumour weight)", "setting": "Lewis lung carcinoma; 100 mg/kg IP every 3-4 days", "value": "178 ± 53^e mg"},
      {"measurement": "T/C (Treated/Control)", "setting": "Lewis lung carcinoma; 100 mg/kg IP", "value": 55, "unit": "%"},
      {"measurement": "TGI (Tumour Growth Inhibition)", "setting": "Lewis lung carcinoma; 100 mg/kg IP", "value": 45, "unit": "%"},
      {"measurement": "CTW (calculated tumour weight)", "setting": "Lewis lung carcinoma; 200 mg/kg IP every 3-4 days", "value": "192 ± 50^e mg"},
      {"measurement": "T/C (Treated/Control)", "setting": "Lewis lung carcinoma; 200 mg/kg IP", "value": 59, "unit": "%"},
      {"measurement": "TGI (Tumour Growth Inhibition)", "setting": "Lewis lung carcinoma; 200 mg/kg IP", "value": 41, "unit": "%"},
      {"measurement": "IC50", "setting": "[3]", "value": "3.9 ± 0.4", "unit": "µM"},
      {"measurement": "IC50", "setting": "[4]", "value": "31 ± 3", "unit": "µM"},
      {"measurement": "IC50", "setting": "[5]", "value": "20 ± 2", "unit": "µM"},
      {"measurement": "IC50", "setting": "B16-F1 cells", "value": "4.2 ± 0.5", "unit": "µM"},
      {"measurement": "IC50", "setting": "WS-1 cells", "value": "38 ± 6", "unit": "µM"},
      {"measurement": "IC50", "setting": "[6]", "value": "3.9 ± 0.4", "unit": "µM"},
      {"measurement": "IC50", "setting": "[7]", "value": "8 ± 1", "unit": "µM"},
      {"measurement": "IC50", "setting": "DLD-1 cells", "value": "3.4 ± 0.5", "unit": "µM"}
    ]}
  ]
}
